{"source": "patent US20200268768A1", "about": "“CENICRIVIROC COMBINATION THERAPY FOR THE TREATMENT OF FIBROSIS” (Tobira Therapeutics, Inc., priority 2015, published 2020)", "tested_on": "mouse UUO model of renal fibrosis", "assay": "Mouse unilateral ureter occlusion (UUO) model of renal fibrosis", "type": "in vivo, CD-1 mice", "conditions": "for Reduction of UUO-induced increase in composite Collagen Volume Fraction (CVF): ±SEM", "procedure": "Test animals were allocated to weight-matched treatment groups on the day prior to the surgical procedure (Day −1). Male CD-1 mice (N=51; age, 7-8 weeks) underwent either sham surgery or total ligation of the right ureter, i.e. UUO, via aseptic laparotomy (FIG. 5). […] Another group received the anti-transforming growth factor TGF-β1 antibody, compound 1D11 (positive control) at 3 mg/kg/day from Days −1 to 4, injected intraperitoneally once daily, and vehicle control from Days 0 to 5. […] On Day 5, animals were anaesthetised, blood and tissues were collected prior to sacrifice.\nStudy endpoints included: a) body and kidney weights; b) fibrosis in obstructed kidney evaluated via histological quantitative image analysis of picrosirius red staining (ten images/depth/kidney obtained and assessed in a blinded fashion using light microscopy [at 200×] to enable sampling of 60-70% of the renal cortical area) and quantified by a composite Collagen Volume Fraction (CVF [% total area imaged]) score expressed as the average positive stain across three anatomically distinct (200-250 μM apart) tissue sections, or depths, from the obstructed kidney; c) hydroxyproline content of frozen renal cortical tissue biopsies as assessed by biochemical analyses; d) mRNA expression of profibrotic and inflammatory biomarkers (including MCP-1, Collagen 1a1, Collagen 3α1, TGF-β31, Fibronectin-1, α-smooth muscle actin (α-SMA) and connective tissue growth factor-1 (CTGF-1); assessed via Luminex® (Life Technologies™, Carlsbad, Calif., USA) assay with relative expression normalised to HPRT (hypoxanthine phosphoribosyltransferase).\nData are expressed as mean±standard error of mean (SEM). Statistical analyses were performed using GraphPad Prism® (GraphPad Software, Inc., San Diego, Calif., USA). Treatment differences between sham-surgery+vehiclecontrol and UUO+vehicle-control groups, and between UUO+vehicle-control and UUO+compound-1D11 (positive control) groups, were analysed by unpaired t-Test. Treatment differences between UUO+vehicle-control and CVC-dose groups were analysed by one-way ANOVA (analysis of variance) with Dunnett's test (post-hoc).", "key": {"[1]": {"conditions": "CVC 7 and 20 mg/kg/day, compound 1D11 3 mg/kg/day, versus UUO+vehicle-control"}}}
{"smiles": "CCCCOCCOc1ccc(-c2ccc3c(c2)C=C(C(=O)Nc2ccc([S@@+]([O-])Cc4cncn4CCC)cc2)CCCN3CC(C)C)cc1", "note": "[CVC, (S)-8-[4-(2-Butoxyethoxy)phenyl]-1-isobutyl-N-(4-{[(1-propyl-1H-imidazol-5-yl)methyl]sulfinyl}phenyl)-1,2,3,4-tetrahydro-1-benzazocine-5-carboxamide]", "values": [{"measurement": "Reduction of UUO-induced increase in composite Collagen Volume Fraction (CVF)", "setting": "CVC 7 mg/kg/day oral, Day 5", "value": "28.6±8.8", "unit": "%"}, {"measurement": "Reduction of UUO-induced increase in composite Collagen Volume Fraction (CVF)", "setting": "CVC 20 mg/kg/day oral, Day 5, one outlier excluded", "value": "31.8±6.8", "unit": "%"}, {"measurement": "Tolerability after UUO surgery", "setting": "CVC 100 mg/kg/day group (N=9)", "value": "terminated early due to moribundity"}, {"measurement": "Effect on obstructed kidney hydroxyproline content", "setting": "CVC 7 and 20 mg/kg/day, Day 5", "value": "Neither dose of CVC tested affected UUO-induced increases in obstructed kidney hydroxyproline content"}, {"measurement": "Collagen 1a1, Collagen 3α1, TGF-β1 and Fibronectin-1 mRNA expression in obstructed kidney", "setting": "[1]", "value": "these reductions, compared with the UUO+vehicle-control group, did not reach statistical significance"}, {"measurement": "Obstructed kidney cortical MCP-1, α-SMA and CTGF-1 mRNA expression", "setting": "[1]", "value": "did not have significant effects"}, {"measurement": "Effect on body weight relative to UUO+vehicle-control", "setting": "Day 5, CVC 7 mg/kg/day oral, compound 1D11 3 mg/kg/day i.p.", "value": "no effect on body weight"}, {"measurement": "Decrease in body weight relative to UUO+vehicle-control", "setting": "Day 5, CVC 20 mg/kg/day oral", "value": 5, "unit": "%"}, {"measurement": "Obstructed or contralateral kidney weight or kidney weight index versus UUO+vehicle-control", "setting": "Day 5, CVC 7 and 20 mg/kg/day, compound 1D11 3 mg/kg/day", "value": "No significant treatment effects"}]}
